One series deals with Fusarium graminearum. The series can be described thus: microbe, parasite or virus in culture. It is filed as cell-based.
The subject of another series is Alternaria solani. The series can be described thus: Example M: in vivo test on Alternaria solani (leaf blotch disease/tomato/protective). As to conditions: 168 h, tomato, protective, 500 ppm active substance, assessed 7 days after inoculation, read-out: % Wirkungsgrad (activity level). On the procedure: Solvent: 49 parts by weight N,N-dimethylformamide Emulsifier: 1 part by weight alkylaryl polyglycol ethers For the preparation of a suitable active substance preparation, 1 part by weight of active substance is mixed with the stated quantities of solvent and emulsifier and the concentrate is diluted to the desired concentration with water. For the testing for protective activity, young tomato plants are sprayed with the active substance preparation at the stated application dosage. […] 7 days after the inoculation, the assessment takes place.

The mark [1] stands for this setting: 72 h, read-out: % Inhibition des Pilzwachstums bei 50 μM.
The mark [2] stands for this setting: 168 h, read-out: % Inhibition der DON/AcDON produktion bei 50 μM.
Where [3] appears, read: LogPA (logP of the stated pure compound or, in a mixture, of the main isomer, 1-substituted 3-aryl-1H-pyrazole).

Each structure is given as a SMILES string. Like-named read-outs stand apart in the source and are kept apart here.

For orientation: chromatographic logP means lipophilicity estimated from chromatographic retention. Regarding `O=C1OCCC1n1cc(-c2ccncc2)c(-c2ccc(F)cc2)n1` (stereo not shown) [Compound 142], the inhibition at 50 µM in the series with Fusarium graminearum (setting [1]) worked out at 0%; in the series on Fusarium graminearum (setting [2]), 89%. In addition, in the series with Alternaria solani, the pest or weed control at 500 ppm amounted to 94%. Besides, the chromatographic logP in the series “physchem” (setting [3]) turned out to be 0.95.

With `CC(C)Cn1cc(-c2ccncc2)c(-c2ccc(F)c(C#N)c2)n1` [Compound 154], the inhibition at 50 µM stood at 0% in the series with Fusarium graminearum (setting [1]) and 93% in the series on Fusarium graminearum (setting [2]). In the series “physchem” (setting [3]), the chromatographic logP came out at 1.65.

On to `CC(C)On1cc(-c2ccncc2)c(-c2ccc(F)cc2)n1` [Compound 227], for which the inhibition at 50 µM in the series with Fusarium graminearum (setting [1]) and with Fusarium graminearum (setting [2]) was 100% in each case. The pest or weed control at 500 ppm in the series on Alternaria solani came to 95%. The chromatographic logP in the series “physchem” (LogPA) was 1.58.

With `CCC(=O)Nc1cc(-c2cn(CC(C)C)nc2-c2ccc(F)c(C#N)c2)ccn1` [Compound 230], the inhibition at 50 µM with Fusarium graminearum (setting [1]) was 0%; in the series with Fusarium graminearum (setting [2]), 97%. This compound registered a chromatographic logP in “physchem” (LogPA) of 2.67.

With `COCC(=O)Nc1cc(-c2cn(CC(C)C)nc2-c2ccc(F)c(C#N)c2)ccn1` [Compound 246], the inhibition at 50 µM in the series with Fusarium graminearum (setting [1]) worked out at 88%; with Fusarium graminearum (setting [2]) it was 99%. The chromatographic logP in the series “physchem” (LogPA) was 2.98.

On to `COCC(=O)Nc1cc(-c2cn(Cc3ccccc3F)nc2-c2ccc(F)cc2)ccn1` [Compound 247], for which the results for the inhibition at 50 µM in the series on Fusarium graminearum (setting [1]) and with Fusarium graminearum (setting [2]) were 96% and 99%, respectively. Besides, the pest or weed control at 500 ppm with Alternaria solani was determined as 94%. In the series “physchem” (LogPA), this compound gave a chromatographic logP of 3.09.

As for `CC(C)Cn1cc(-c2ccnc(NC(=O)CC3CC3)c2)c(-c2ccc(F)c(C#N)c2)n1` [Compound 252], the inhibition at 50 µM in the series with Fusarium graminearum (setting [1]) was 0%; in the series with Fusarium graminearum (setting [2]) it was 99%. In addition, the chromatographic logP in the series “physchem” (LogPA) worked out at 3.14.

Regarding `CC(C)Cn1cc(-c2ccnc(NC(=O)C(C)C)c2)c(-c2ccc(F)c(C#N)c2)n1` [Compound 255], the inhibition at 50 µM was 0% in the series with Fusarium graminearum (setting [1]) and 96% in the series with Fusarium graminearum (setting [2]). Also, in the series “physchem” (LogPA), the chromatographic logP is 3.03.

`CC(C)Cn1cc(-c2ccnc(NC(=O)C3CC3)c2)c(-c2ccc(F)c(C#N)c2)n1` [Compound 261]: the inhibition at 50 µM in the series with Fusarium graminearum (setting [1]) amounted to 39%; with Fusarium graminearum (setting [2]) it was 99%. In the series “physchem” (LogPA), this compound yielded a chromatographic logP of 2.77.

In the case of `CCOC(=O)Nc1cc(-c2cn(CC(C)C)nc2-c2ccc(F)c(C#N)c2)ccn1` [Compound 265], the inhibition at 50 µM with Fusarium graminearum (setting [1]) worked out at 9%; in the series on Fusarium graminearum (setting [2]) it was 98%. The same compound came in with a chromatographic logP in the series “physchem” (LogPA) of 3.19.

In the case of `CCOC(=O)CC(CC)CC(=O)Nc1cc(-c2cn(CC)nc2-c2ccc(F)cc2)ccn1` (stereo not shown) [Compound 332], the pest or weed control at 500 ppm in the series on Alternaria solani is 90%. In addition, the chromatographic logP in “physchem” (LogPA) worked out at 2.9.

For the compound `C[C@H](O)C(=O)Nc1cc(-c2cn(C)nc2-c2ccc(F)cc2)ccn1` [Compound 353], the pest or weed control at 500 ppm in the series with Alternaria solani is 80%. The compound also showed a chromatographic logP in the series “physchem” (LogPA) of 1.57.

With `CC(C)Nc1nccc(-c2cn(C)nc2-c2ccc(F)cc2)n1` [Compound 361], in the series with Alternaria solani, the pest or weed control at 500 ppm stood at 70%. This compound yielded a chromatographic logP in the series “physchem” (LogPA) of 1.65.

For `CC(C)Nc1nccc(-c2cn(CCC#N)nc2-c2ccc(F)cc2)n1` [Compound 362], the pest or weed control at 500 ppm in the series with Alternaria solani was found to be 80%. In “physchem” (LogPA), this compound showed a chromatographic logP of 1.74.

As to `C#CCn1cc(-c2ccnc(NC(C)C)n2)c(-c2ccc(F)cc2)n1` [Compound 363], the pest or weed control at 500 ppm in the series with Alternaria solani came to 90%. In “physchem” (LogPA), this compound yielded a chromatographic logP of 1.99.

As for `CC(C)Nc1nccc(-c2cn(CC(F)F)nc2-c2ccc(F)cc2)n1` [Compound 364], the pest or weed control at 500 ppm in the series with Alternaria solani turned out to be 95%. In the series “physchem” (LogPA), this compound displayed a chromatographic logP of 2.05.

With `CCC(=O)Nc1nccc(-c2cn(CC(C)C)nc2-c2ccc(F)cc2)n1` [Compound 365], the pest or weed control at 500 ppm in the series with Alternaria solani was 80%. Moreover, the chromatographic logP in the series “physchem” (LogPA) is 2.7.

Consider `CCn1cc(-c2ccnc(NC(C)C)n2)c(-c2ccc(F)cc2)n1` [Compound 370], for which, in the series with Alternaria solani, the pest or weed control at 500 ppm came to 95%. The same compound registered a chromatographic logP in the series “physchem” (LogPA) of 1.91.

The record behind these values is US20110183978A1, “Phenylpyri(mi)dinylazoles” (Bayer CropScience AG, priority 2009, published 2011).
